From publication PMC6277767, “Broad and Region-Specific Impacts of the Synthetic Cannabinoid CP 55,940 in Adolescent and Adult Female Mouse Brains” (Frontiers in Molecular Neuroscience, 2018)

Tested on: CD1 female mouse brain lipidome
Assay: Brain-region lipid levels (HPLC/MS/MS lipidomics) 2 h after single i.p. 3 mg/kg CP 55,940 vs vehicle
Assay type: in vivo
Procedure: The Bloomington Institutional Animal Care and Use Committee of Indiana University reviewed and approved the animal procedures. Female mice from the CD1 strain were utilized to match our study examining THC’s effects on the brain lipidome ([Leishman et al., 2018]). Mice were given a single i.p. injection of either 3 mg/kg CP or 1:1:18 cremophor:ethanol:saline vehicle (please refer to the section “3 mg/kg CP Is Relevant for Synthetic Cannabinoid Abuse and Has Stronger Effects on the Female Mouse Brain Lipidome During Adolescence” for a justification of dose and use of female mice). Three different age groups were given injections: PND 35 and PND 50 adolescents, and adult mice (PND 113). At least eight mice in each age group received CP and at least eight received vehicle. Matching the THC study time course ([Leishman et al., 2018]), mice were sacrificed via rapid decapitation 2 h after injection. Brains were immediately removed and flash-frozen in liquid nitrogen, and then stored at -80°C until dissections were performed. Brains were dissected on an ice-cold dissection plate into the following regions: STR, HIPP, CER, THAL, CTX, HYP, MID, and STEM. These abbreviations for these brain areas will be used exclusively when discussing the results generated by these specific dissections. Each dissected area was immediately placed in liquid nitrogen and then stored at -80°C until used for lipid extraction.
Tissue extracts were performed as previously described ([Bradshaw et al., 2006]; [Stuart et al., 2013]; [Raboune et al., 2014]; [Leishman et al., 2016a],[b], [2017], [2018]). First, samples were shock frozen in liquid nitrogen, weighed, and transferred to a centrifuge tube. The mass of the largest sample was multiplied by 50 to determine how many milliliters of HPLC-grade methanol (Fisher, Fair Lawn, NJ, United States) to add. Then, samples were spiked with 500 pmol deuterium-labeled NAGly (d8NAGly; Cayman Chemical, Ann Arbor, MI, United States). Samples were placed on ice in darkness for 2 h then individually homogenized and centrifuged at 19,000 × g for 20 min at 20°C. Supernatants were diluted with HPLC water (purified in house) to make a solution of 75% water, 25% supernatant. Lipids were partially purified on C18 solid phase extraction columns (Agilent, Palo Alto, CA, United States). A series of four elutions with 1.5 mL of 60%, 75%, 85%, and 100% methanol were collected ([Stuart et al., 2013]; [Leishman et al., 2016a],[b], [2018]).
As previously described ([Bradshaw et al., 2006]; [Tan et al., 2006]; [Smoum et al., 2010]; [Stuart et al., 2013]; [Tortoriello et al., 2013]; [Raboune et al., 2014]; [Leishman et al., 2016a],[b], [2017], [2018]), samples were analyzed using an Applied Biosystems API 3000 triple quadrupole mass spectrometer with electrospray ionization (Foster City, CA, United States). Using an Agilent XDB-C18 reversed phase analytical column and optimized mobile phase gradients, 20 μL from each elution were chromatographed. Two Shimadzu 10ADvp pumps (Columbia, MD, United States) provided the pressure for gradient elution. Mobile phase A: 20% methanol, 80% water (v/v) and 1 mM ammonium acetate (Sigma, St. Louis, MO, United States). Mobile phase B: 100% methanol, 1 mM ammonium acetate. Every method run began with 0% mobile phase B, reached 100% mobile phase B flowing at 0.2 mL/min, and gradually returned to 0% mobile phase B.
This screening library will be referred to as the lipidome when discussing data from this study. HPLC/MS/MS data were analyzed using Analyst software (Applied Biosystems) ([Bradshaw et al., 2006]; [Tan et al., 2006]; [Stuart et al., 2013]; [Tortoriello et al., 2013]; [Raboune et al., 2014]; [Leishman et al., 2016a],[b], [2017], [2018]). Chromatograms (Supplementary Figure 3) were generated by determining the retention time of analytes from the analytical column with a [M-1] or [M+1] parent peak and a fragmentation peak corresponding to the programmed values. […]

Structure (SMILES): CCCCCCC(C)(C)c1ccc([C@@H]2C[C@H](O)CC[C@H]2CCCO)c(O)c1 [CP 55,940]
- changes in lipid levels that were decreases (PND 50 MID): two
- number of lipids changed (PND 50 MID, 62 detected): 26
- 2-linoleoyl glycerol level vs vehicle (PND 50 STEM): ↓ (1-1.49 times lower than vehicle)
- 2-oleoyl glycerol level vs vehicle (PND 50 STEM): ↓ (1-1.49 times lower than vehicle)
- 2-palmitoyl glycerol level vs vehicle (PND 50 STEM): ↓ (1-1.49 times lower than vehicle)
- 6-ketoPGF1α level vs vehicle (PND 50 STEM): ↓ (1-1.49 times lower than vehicle)
- Linoleic acid level vs vehicle (PND 50 STEM): ↓ (1-1.49 times lower than vehicle)
- N-arachidonoyl GABA level vs vehicle (PND 50 STEM): ↓ (1-1.49 times lower than vehicle)
- N-arachidonoyl phenylalanine level vs vehicle (PND 50 STEM): ↑ (1-1.49 times higher than vehicle)
- N-arachidonoyl serine level vs vehicle (PND 50 STEM): ↓ (1-1.49 times lower than vehicle)
- N-arachidonoyl taurine level vs vehicle (PND 50 STEM): ↓ (1-1.49 times lower than vehicle)
- N-arachidonoyl tyrosine level vs vehicle (PND 50 STEM): ↓ (1-1.49 times lower than vehicle)
- N-oleoyl methionine level vs vehicle (PND 50 STEM): ↓ (1-1.49 times lower than vehicle)
- N-palmitoyl leucine level vs vehicle (PND 50 STEM): ↑ (1-1.49 times higher than vehicle)
- N-palmitoyl tyrosine level vs vehicle (PND 50 STEM): ↑ (1-1.49 times higher than vehicle)
- Oleic Acid level vs vehicle (PND 50 STEM): ↓ (1-1.49 times lower than vehicle)
- PGE2 level vs vehicle (PND 50 STEM): ↓ (1-1.49 times lower than vehicle)
- PGF2α level vs vehicle (PND 50 STEM): ↓ (1-1.49 times lower than vehicle)
- 2-arachidonoyl glycerol level vs vehicle (PND 50 STR): ↓ (1-1.49 times lower than vehicle)
- 2-linoleoyl glycerol level vs vehicle (PND 50 STR): ↓ (1-1.49 times lower than vehicle)
- Arachidonic acid level vs vehicle (PND 50 STR): ↓ (1-1.49 times lower than vehicle)
- Linoleic acid level vs vehicle (PND 50 STR): ↓ (1-1.49 times lower than vehicle)
- N-arachidonoyl GABA level vs vehicle (PND 50 STR): ↓ (1-1.49 times lower than vehicle)
- N-arachidonoyl glycine level vs vehicle (PND 50 STR): ↓↓ (1.50-1.99 times lower than vehicle)
- N-arachidonoyl phenylalanine level vs vehicle (PND 50 STR): ↓ (1-1.49 times lower than vehicle)
- N-arachidonoyl taurine level vs vehicle (PND 50 STR): ↓ (1-1.49 times lower than vehicle)
- N-docosahexaenoyl GABA level vs vehicle (PND 50 STR): ↓ (1-1.49 times lower than vehicle)
- N-docosahexaenoyl glycine level vs vehicle (PND 50 STR): ↓↓ (1.50-1.99 times lower than vehicle)
- N-palmitoyl leucine level vs vehicle (PND 50 STR): ↑ (1-1.49 times higher than vehicle)
- N-palmitoyl tyrosine level vs vehicle (PND 50 STR): ↑ (1-1.49 times higher than vehicle)
- N-palmitoyl valine level vs vehicle (PND 50 STR): ↑↑ (1.50-1.99 times higher than vehicle)
- Oleic Acid level vs vehicle (PND 50 STR): ↓ (1-1.49 times lower than vehicle)
- PGF2α level vs vehicle (PND 50 STR): ↑ (1-1.49 times higher than vehicle)
- 2-arachidonoyl glycerol level vs vehicle (PND 50 THAL): ↓ (1-1.49 times lower than vehicle)
- 2-linoleoyl glycerol level vs vehicle (PND 50 THAL): ↓ (1-1.49 times lower than vehicle)
- 2-oleoyl glycerol level vs vehicle (PND 50 THAL): ↓ (1-1.49 times lower than vehicle)
- 6-ketoPGF1α level vs vehicle (PND 50 THAL): ↑↑ (1.50-1.99 times higher than vehicle)
- Arachidonic acid level vs vehicle (PND 50 THAL): ↓ (1-1.49 times lower than vehicle)
- Linoleic acid level vs vehicle (PND 50 THAL): ↓ (1-1.49 times lower than vehicle)
- N-arachidonoyl GABA level vs vehicle (PND 50 THAL): ↓ (1-1.49 times lower than vehicle)
- N-arachidonoyl ethanolamine level vs vehicle (PND 50 THAL): ↓ (1-1.49 times lower than vehicle)
- N-arachidonoyl glycine level vs vehicle (PND 50 THAL): ↓↓ (1.50-1.99 times lower than vehicle)
- N-arachidonoyl phenylalanine level vs vehicle (PND 50 THAL): ↓↓ (1.50-1.99 times lower than vehicle)
- N-arachidonoyl taurine level vs vehicle (PND 50 THAL): ↓ (1-1.49 times lower than vehicle)
- N-arachidonoyl tyrosine level vs vehicle (PND 50 THAL): ↓ (1-1.49 times lower than vehicle)
- N-docosahexaenoyl GABA level vs vehicle (PND 50 THAL): ↓ (1-1.49 times lower than vehicle)
- N-linoleoyl GABA level vs vehicle (PND 50 THAL): ↓↓ (1.50-1.99 times lower than vehicle)
- N-palmitoyl leucine level vs vehicle (PND 50 THAL): ↑ (1-1.49 times higher than vehicle)
- N-palmitoyl serine level vs vehicle (PND 50 THAL): ↓ (1-1.49 times lower than vehicle)
- N-stearoyl serine level vs vehicle (PND 50 THAL): ↓ (1-1.49 times lower than vehicle)
- Oleic Acid level vs vehicle (PND 50 THAL): ↓ (1-1.49 times lower than vehicle)
- PGE2 level vs vehicle (PND 50 THAL): ↓ (1-1.49 times lower than vehicle)
- PGF2α level vs vehicle (PND 50 THAL): ↓ (1-1.49 times lower than vehicle)
- changes in NAEs (all decreases) (PND 50 brain): 16
- changes in lipoamines derived from AA (PND 50 brain): 41
- decreases in 2-acyl glycerol levels (PND 50 brain): 17
- decreases in PG levels (PND 50 brain): 11
- decreases in free fatty acid levels (PND 50 brain): 16
- increases in PG levels (PND 50 brain): 7
- percentage of detected lipids modified with acute CP (PND 50 brain, 450 detected): 31.33%
- total changes in lipid levels across the eight regions (adult): 97
- 2-arachidonoyl glycerol level vs vehicle (adult CER): ↓ (1-1.49 times lower than vehicle)
- 2-linoleoyl glycerol level vs vehicle (adult CER): ↓↓ (1.50-1.99 times lower than vehicle)
- 2-oleoyl glycerol level vs vehicle (adult CER): ↓ (1-1.49 times lower than vehicle)
- 6-ketoPGF1α level vs vehicle (adult CER): ↓ (1-1.49 times lower than vehicle)
- Arachidonic acid level vs vehicle (adult CER): ↓ (1-1.49 times lower than vehicle)
- Linoleic acid level vs vehicle (adult CER): ↓↓ (1.50-1.99 times lower than vehicle)
- N-arachidonoyl GABA level vs vehicle (adult CER): ↓↓ (1.50-1.99 times lower than vehicle)
- N-arachidonoyl ethanolamine level vs vehicle (adult CER): ↓↓ (1.50-1.99 times lower than vehicle)
- N-arachidonoyl phenylalanine level vs vehicle (adult CER): ↓↓↓ (2-2.99 times lower than vehicle)
- N-arachidonoyl taurine level vs vehicle (adult CER): ↓ (1-1.49 times lower than vehicle)
- N-docosahexaenoyl GABA level vs vehicle (adult CER): ↓ (1-1.49 times lower than vehicle)
- N-docosahexaenoyl ethanolamine level vs vehicle (adult CER): ↓ (1-1.49 times lower than vehicle)
- N-linoleoyl GABA level vs vehicle (adult CER): ↓ (1-1.49 times lower than vehicle)
- N-linoleoyl ethanolamine level vs vehicle (adult CER): ↓↓ (1.50-1.99 times lower than vehicle)
- N-oleoyl serine level vs vehicle (adult CER): ↓ (1-1.49 times lower than vehicle)
- N-oleoyl valine level vs vehicle (adult CER): ↑↑↑ (2-2.99 times higher than vehicle)
- N-palmitoyl tyrosine level vs vehicle (adult CER): ↓ (1-1.49 times lower than vehicle)
- Oleic Acid level vs vehicle (adult CER): ↓↓ (1.50-1.99 times lower than vehicle)
- PGE2 level vs vehicle (adult CER): ↓ (1-1.49 times lower than vehicle)
- PGF2α level vs vehicle (adult CER): ↓ (1-1.49 times lower than vehicle)
- changes in lipid levels that were decreases (adult CER): 20
- changes in lipid levels that were increases (adult CER): 1
- phosphoLEA level vs vehicle (adult CER): ↓ (1-1.49 times lower than vehicle)
- number of lipids changed (adult CER, 53 detected): 21
- 2-linoleoyl glycerol level vs vehicle (adult CTX): ↓ (1-1.49 times lower than vehicle)
- 6-ketoPGF1α level vs vehicle (adult CTX): ↓ (1-1.49 times lower than vehicle)
- Arachidonic acid level vs vehicle (adult CTX): ↓ (1-1.49 times lower than vehicle)
- N-arachidonoyl taurine level vs vehicle (adult CTX): ↓ (1-1.49 times lower than vehicle)
- N-linoleoyl GABA level vs vehicle (adult CTX): ↓ (1-1.49 times lower than vehicle)
- N-palmitoyl valine level vs vehicle (adult CTX): ↑ (1-1.49 times higher than vehicle)
- N-stearoyl phenylalanine level vs vehicle (adult CTX): ↓↓ (1.50-1.99 times lower than vehicle)
- PGF2α level vs vehicle (adult CTX): ↓ (1-1.49 times lower than vehicle)
- number of lipids changed (adult CTX, 58 detected): eight
- 2-linoleoyl glycerol level vs vehicle (adult HIPP): ↓ (1-1.49 times lower than vehicle)
- N-arachidonoyl GABA level vs vehicle (adult HIPP): ↓ (1-1.49 times lower than vehicle)
- N-arachidonoyl alanine level vs vehicle (adult HIPP): ↓ (1-1.49 times lower than vehicle)
- N-arachidonoyl glycine level vs vehicle (adult HIPP): ↓ (1-1.49 times lower than vehicle)
- N-arachidonoyl phenylalanine level vs vehicle (adult HIPP): ↓↓ (1.50-1.99 times lower than vehicle)
- N-docosahexaenoyl GABA level vs vehicle (adult HIPP): ↓ (1-1.49 times lower than vehicle)
- N-oleoyl GABA level vs vehicle (adult HIPP): ↓ (1-1.49 times lower than vehicle)
- N-oleoyl phenylalanine level vs vehicle (adult HIPP): ↓ (1-1.49 times lower than vehicle)
